In patent US20260083851A1 (AVILAR THERAPEUTICS, INC., priority 2022, published 2026):
pKd: −log10 of the molar value.

target: T1, ASGP receptor (biotinylated ASGPR) (Homo sapiens, UniProt P07306); assay type: binding; conditions: SPR, Biacore 8K, 25° C.; Table 1A; read-out: ASGPR KD
T1 construct: biotin (biotinylated)
T1 sequence (P07306 1-291): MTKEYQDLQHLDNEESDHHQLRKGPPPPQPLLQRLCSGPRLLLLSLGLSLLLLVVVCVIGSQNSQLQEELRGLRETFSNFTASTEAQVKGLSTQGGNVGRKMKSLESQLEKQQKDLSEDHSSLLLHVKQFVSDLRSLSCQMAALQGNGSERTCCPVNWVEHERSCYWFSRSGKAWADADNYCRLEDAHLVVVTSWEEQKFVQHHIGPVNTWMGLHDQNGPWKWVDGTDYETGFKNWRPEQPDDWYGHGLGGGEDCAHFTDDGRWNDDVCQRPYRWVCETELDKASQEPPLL

Row | pKd | SMILES
1 | > 5.00 | OC[C@H]1NC[C@H](Nc2nccc(C(F)(F)F)n2)[C@@H](O)[C@H]1O [A117]
2 | > 5.00 | O=C(O)c1cc2ccc1CCc1ccc(c(C(=O)NC[C@H]3OC[C@H](Nc4cncc(C(F)(F)F)n4)[C@@H](O)[C@H]3O)c1)CC2 [A66, 4^3-((((2R,3R,4R,5S)-3,4-dihydroxy-5-((6-(trifluoromethyl)pyrazin-2-yl)amino)tetrahydro-2H-pyran-2-yl)methyl)carbamoyl)-1,4(1,4)-dibenzenacyclohexaphane-1^2-carboxylic acid]
3 | > 5.00 | O=C(O)CN1CCC(N2CCC(C(=O)NC[C@H]3OC[C@H](Nc4cncc(C(F)(F)F)n4)[C@@H](O)[C@H]3O)CC2)CC1 [A62, 2-(4-((((2R,3R,4R,5S)-3,4-dihydroxy-5-((6-(trifluoromethyl)pyrazin-2-yl)amino)tetrahydro-2H-pyran-2-yl)methyl)carbamoyl)-[1,4′-bipiperidin]-1′-yl)acetic acid]
4 | > 5.00 | O=C(NC[C@H]1OC[C@H](Nc2cncc(C(F)(F)F)n2)[C@@H](O)[C@H]1O)c1cnc(-c2ccccc2)nc1 [A89]
5 | > 5.00 | O=C(NC[C@H]1OC[C@H](Nc2cncc(C(F)(F)F)n2)[C@@H](O)[C@H]1O)c1ccc2c(c1)CCNC2 [A3, N-(((2R,3R,4R,5S)-3,4-dihydroxy-5-((6-(trifluoromethyl)pyrazin-2-yl)amino)tetrahydro-2H-pyran-2-yl)methyl)-1,2,3,4-tetrahydroisoquinoline-6-carboxamide]
6 | > 5.00 | O=C(NC[C@H]1OC[C@H](Nc2cncc(C(F)(F)F)n2)[C@@H](O)[C@H]1O)Nc1ccc(C(=O)O)cc1 [A113, 4-(3-(((2R,3R,4R,5S)-3,4-dihydroxy-5-((6-(trifluoromethyl)pyrazin-2-yl)amino)tetrahydro-2H-pyran-2-yl)methyl)ureido)benzoic acid]
7 | > 5.00 | OC[C@H]1O[C@H](c2ccccc2)[C@H](Nc2cncc(C(F)(F)F)n2)[C@@H](O)[C@H]1O [A105, (2R,3R,4R,5R,6R)-2-(hydroxymethyl)-6-phenyl-5-((6-(trifluoromethyl)pyrazin-2-yl)amino)tetrahydro-2H-pyran-3,4-diol]
8 | > 5.00 | O=C(NC[C@H]1OC[C@H](Nc2cncc(C(F)(F)F)n2)[C@@H](O)[C@H]1O)c1cc(C(F)(F)F)n[nH]1 [A29, N-(((2R,3R,4R,5S)-3,4-dihydroxy-5-((6-(trifluoromethyl)pyrazin-2-yl)amino)tetrahydro-2H-pyran-2-yl)methyl)-3-(trifluoromethyl)-1H-pyrazole-5-carboxamide]
9 | > 5.00 | O=C(NC[C@H]1OC[C@H](Nc2cncc(C(F)(F)F)n2)[C@@H](O)[C@H]1O)c1ccccc1 [A36, N-(((2R,3R,4R,5S)-3,4-dihydroxy-5-((6-(trifluoromethyl)pyrazin-2-yl)amino)tetrahydro-2H-pyran-2-yl)methyl)benzamide]
10 | > 5.00 | O=C(O)c1cnc(C(=O)NC[C@H]2OC[C@H](Nc3cncc(C(F)(F)F)n3)[C@@H](O)[C@H]2O)nc1 [A84, 2-((((2R,3R,4R,5S)-3,4-dihydroxy-5-((6-(trifluoromethyl)pyrazin-2-yl)amino)tetrahydro-2H-pyran-2-yl)methyl)carbamoyl)pyrimidine-5-carboxylic acid]
11 | > 5.00 | O=C(NC[C@H]1OC[C@H](Nc2cncc(C(F)(F)F)n2)[C@@H](O)[C@H]1O)c1ccnnc1 [A27, N-(((2R,3R,4R,5S)-3,4-dihydroxy-5-((6-(trifluoromethyl)pyrazin-2-yl)amino)tetrahydro-2H-pyran-2-yl)methyl)pyridazine-4-carboxamide]
12 | > 5.00 | O[C@@H]1[C@H](O)[C@@H](Nc2cncc(C(F)(F)F)n2)CO[C@@H]1COCCOCCNc1cnccn1 [A56, (2R,3R,4R,5S)-2-((2-(2-(pyrazin-2-ylamino)ethoxy)ethoxy)methyl)-5-((6-(trifluoromethyl)pyrazin-2-yl)amino)tetrahydro-2H-pyran-3,4-diol]

same assay, conditions: SPR, Biacore 8K, 25° C.; Table 1B; read-out: ASGPR Kd

Row | pKd | SMILES
13 | > 5.00 | O=C1c2ccccc2CN1C[C@H]1OC[C@H](Nc2cncc(C(F)(F)F)n2)[C@@H](O)[C@H]1O [A152, 2-(((2R,3R,4R,5S)-3,4-dihydroxy-5-((6-(trifluoromethyl)pyrazin-2-yl)amino)tetrahydro-2H-pyran-2-yl)methyl) isoindolin-1-one]

same assay, conditions: SPR, Biacore 8K, 25° C.; Table 1C; read-out: ASGPR KD

Row | pKd | SMILES
14 | > 5.00 | O[C@@H]1[C@H](O)[C@@H](Oc2cccc(C(F)(F)F)n2)CO[C@@H]1COc1cccnn1 [A216, (2R,3R,4S,5S)-2-((pyridazin-3-yloxy)methyl)-5-((6-(trifluoromethyl)pyridin-2-yl)oxy)tetrahydro-2H-pyran-3,4-diol]
15 | > 5.00 | NC[C@H]1OC[C@H](Oc2cccc(C(F)(F)F)n2)[C@@H](O)[C@H]1O [A192, (2R,3R,4S,5S)-2-(aminomethyl)-5-((6-(trifluoromethyl)pyridin-2-yl)oxy)tetrahydro-2H-pyran-3,4-diol]
16 | > 5.00 | CC(C)(C)OC(=O)N1CC2CN(C[C@H]3OC[C@H](Oc4cccc(C(F)(F)F)n4)[C@@H](O)[C@H]3O)CC2C1 (stereo partly shown) [A262]
17 | > 5.00 | O[C@@H]1[C@H](O)[C@@H](Oc2cccc(C(F)(F)F)n2)CO[C@@H]1COc1cncnc1 [A289]
18 | > 5.00 | CC(C)(C)OC(=O)N1CCC(n2cc([C@H]3OC[C@H](Oc4cccc(C(F)(F)F)n4)[C@@H](O)[C@H]3O)nn2)CC1 [A220, tert-butyl 4-(4-((2R,3R,4S,5S)-3,4-dihydroxy-5-((6-(trifluoromethyl)pyridin-2-yl)oxy)tetrahydro-2H-pyran-2-yl)-1H-1,2,3-triazol-1-yl)piperidine-1-carboxylate]
19 | > 5.00 | C[C@H]1O[C@H](c2cn(C3CCNCC3)nn2)[C@H](Oc2cccc(C(F)(F)F)n2)[C@@H](O)[C@H]1O [A218, (2R,3R,4S,5R,6R)-2-methyl-6-(1-(piperidin-4-yl)-1H-1,2,3-triazol-4-yl)-5-((6-(trifluoromethyl)pyridin-2-yl)oxy)tetrahydro-2H-pyran-3,4-diol]
20 | > 5.00 | O[C@@H]1[C@H](O)[C@@H](Oc2cccc(C(F)(F)F)n2)CO[C@@H]1CN1CCN(c2ccncn2)CC1 [A284]
21 | > 5.00 | C[C@H]1O[C@@H](c2ncnc3c2ncn3Cc2ccccc2)[C@H](Oc2cccc(C(F)(F)F)n2)[C@@H](O)[C@H]1O [A335]
22 | > 5.00 | O[C@@H]1[C@@H](Oc2cccc(C(F)(F)F)n2)COC(C(F)c2ccc(Cl)cc2)[C@@H]1O (stereo partly shown) [A308]
23 | > 5.00 | O[C@@H]1[C@@H](Nc2cccc(C(F)(F)F)n2)[C@H]2OC[C@](COc3cnccn3)(O2)[C@@H]1O [A296]
24 | > 5.00 | O=C1c2ccccc2CN1C[C@H]1OC[C@H](Oc2cccc(C(F)(F)F)n2)[C@@H](O)[C@H]1O [A265]
25 | > 5.00 | O[C@@H]1[C@H](O)[C@@H](Oc2cccc(C(F)(F)F)n2)CO[C@@H]1COc1ccccn1 [A287]
26 | > 5.00 | O=C(O)c1ccc(OC[C@H]2OC[C@H](Nc3nccc(C(F)(F)F)n3)[C@@H](O)[C@H]2O)nn1 [A325]
27 | > 5.00 | O=C(O)c1ccc(CN2CCN(C[C@H]3OC[C@H](Nc4cncc(C(F)(F)F)n4)[C@@H](O)[C@H]3O)CC2)cc1F [A204, 4-((4-(((2R,3R,4R,5S)-3,4-dihydroxy-5-((6-(trifluoromethyl)pyrazin-2-yl)amino)tetrahydro-2H-pyran-2-yl)methyl)piperazin-1-yl)methyl)-2-fluorobenzoic acid]
28 | > 5.00 | O[C@@H]1[C@H](O)[C@@H](Nc2cccc(C(F)(F)F)n2)CO[C@@H]1CN1CCc2ccccc2C1 [A268]
29 | > 5.00 | C[C@H]1O[C@H](C#CCOc2cccnn2)[C@H](Oc2cccc(C(F)(F)F)n2)[C@@H](O)[C@H]1O [A319]
30 | > 5.00 | O[C@@H]1[C@H](O)[C@@H](Oc2cccc(C(F)(F)F)n2)CO[C@@H]1CN1CCN(c2ccccc2)CC1 [A242]
31 | > 5.00 | O=C(O)c1ccc(N2CCN(C[C@H]3OC[C@H](Nc4cncc(C(F)(F)F)n4)[C@@H](O)[C@H]3O)CC2)cc1 [A223, 4-(4-(((2R,3R,4R,5S)-3,4-dihydroxy-5-((6-(trifluoromethyl)pyrazin-2-yl)amino)tetrahydro-2H-pyran-2-yl)methyl)piperazin-1-yl) benzoic acid]
32 | > 5.00 | CC(C)(C)OC(=O)N1CC(Cc2ccc(OC[C@H]3OC[C@H](Oc4cccc(C(F)(F)F)n4)[C@@H](O)[C@H]3O)nn2)C1 [A256]
33 | > 5.00 | O[C@@H]1[C@H](O)[C@@H](Oc2cccc(C(F)(F)F)n2)CO[C@@H]1CN1CCC1 [A245]
34 | > 5.00 | O=C1CCCN1C[C@H]1OC[C@H](Oc2cccc(C(F)(F)F)n2)[C@@H](O)[C@H]1O [A258]

same assay, conditions: SPR, Biacore 8K, 25° C.; Table 1D, numeric bound; read-out: ASGPR KD

Row | pKd | SMILES
35 | < 4.52 | O[C@@H]1[C@@H](Nc2ncnn3cccc23)CNC[C@@H]1O [A400]

same assay, conditions: SPR, Biacore 8K, 25° C.; Table 1D; read-out: ASGPR KD

Row | pKd | SMILES
36 | > 5.00 | O[C@@H]1[C@@H](Oc2cccc(C(F)(F)F)n2)CN(c2noc(-c3ccccc3)n2)C[C@@H]1O [A353]
37 | > 5.00 | O[C@@H]1[C@H](O)[C@@H](Nc2cncc(C(F)(F)F)n2)CO[C@@H]1COc1cnc(C2CCNCC2)cn1 [A415]
38 | > 5.00 | O=C(OCc1ccccc1)N1C[C@H](Nc2cccc(C(F)(F)F)n2)[C@@H](O)[C@@H](O)C1 [A390]
39 | > 5.00 | CN(c1cncc(C(F)(F)F)n1)[C@H]1CNC[C@H](O)[C@@H]1O [A365]
40 | > 5.00 | O=C(OCc1ccccc1)N1C[C@H](Oc2cncc(C(F)(F)F)n2)[C@@H](O)[C@@H](O)C1 [A385]
41 | > 5.00 | CC(=O)NNC(=O)N1C[C@H](Oc2cccc(C(F)(F)F)n2)[C@@H](O)[C@@H](O)C1 [A357]
42 | > 5.00 | Cc1nnc(N2C[C@H](Oc3cccc(C(F)(F)F)n3)[C@@H](O)[C@@H](O)C2)s1 [A351]

same assay, conditions: SPR, Biacore 8K, 25° C.; Table 1E, numeric bound; read-out: ASGPR KD

Row | pKd | SMILES
43 | < 4.52 | C[C@H]1O[C@H](C(=O)NCCOCCOCC(=O)O)[C@H](Oc2cccc(C(F)(F)F)n2)[C@@H](O)[C@H]1O [A440]
